Counter-ions that a name gives are not always drawn.
Experiments:
Assay type in all cases: cell-based
[1] = biological target: T1, human S1P4 receptor (S1PR4) (Homo sapiens, UniProt O95977); experiment: Intracellular Ca2+ release (method 1), agonist potency, S1P4; details: CHO-K1 cells expressing human S1PR4
T1 construct: host or cells: CHO-K1
T1 sequence (O95977 1-384): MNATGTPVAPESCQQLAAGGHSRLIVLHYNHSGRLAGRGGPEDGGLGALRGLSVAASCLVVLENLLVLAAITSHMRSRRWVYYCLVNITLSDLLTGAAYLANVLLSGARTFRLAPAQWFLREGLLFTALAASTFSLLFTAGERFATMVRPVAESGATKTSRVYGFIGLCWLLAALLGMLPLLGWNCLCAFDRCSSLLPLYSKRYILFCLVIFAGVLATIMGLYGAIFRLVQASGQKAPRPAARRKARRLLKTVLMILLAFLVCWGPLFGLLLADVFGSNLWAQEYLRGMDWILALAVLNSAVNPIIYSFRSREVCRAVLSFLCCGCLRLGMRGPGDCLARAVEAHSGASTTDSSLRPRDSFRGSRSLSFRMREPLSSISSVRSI
Method: (§1) Agonistic activity and efficacy of compounds was assessed in recombinant cells using method 1 described below.
(§2) Agonist potency and efficacy were assessed by measurement of intracellular Ca^2+ release. Recombinant CHO-K1 cells (Euroscreen, Brussels, Belgium) expressing human S1PR5, S1PR1, S1PR3 or S1PR4 receptors, aequorin, and GTP binding protein Gq/i5 were cultured using a medium containing nutrient mixture F-12 Ham (Sigma-Aldrich) with 10% FBS, and 100 μg/mL gentamicin and equilibrated at 5% CO2.
(§3) 15,000 cells in 20 μL medium were seeded into Biocoat poly-D-Lysine coated 384 well plates (Becton Dickinson #35-6663) and grown to 95% confluency after 24 h.
(§4) Culture medium was replaced by an assay buffer consisting of HBBS with Ca^2+ and Mg^2+ (Invitrogen #14025-050), 20 mmol/L Hepes (Sigma-Aldrich #H-3375), 2.5 mmol/L probenecid (Sigma-Aldrich #P-8761, and 0.1% BSA (Sigma-Aldrich #A-7030) pH 7.4. The Calcium 5 no-wash FLIPR assay kit (Molecular Devices #5000625) was performed as described in the kit instructions. Cells were incubated with Calcium 5 dye for 1 h at 37° C., 5% CO2 in the dark. After 45 min adaptation to RT assessment of agonist stimulation of intracellular Ca^2+ release was performed by addition of test compounds at various concentrations obtained by serial dilution. Phospho-fingolimod was used as positive control and reference agonist (intrinsic activity 100%).
(§5) Agonism of test compounds at the human S1Px receptors were characterized by the EC50 values (potencies) deduced from a nonlinear 4 parametric logistic curve fit to the measured fluorescence data after normalization to the lower and upper plateaus of the fitted reference agonist's (phospho-fingolimod)effect curve and by their efficacy (Emax) values represented by their maximum achievable effects in % of the reference agonist's efficacy, which is defined as an Emax of 100%.

[2] = biological target: T2, human S1P5 receptor (S1PR5) (Homo sapiens, UniProt Q9H228); experiment: Intracellular Ca2+ release (method 1), agonist potency and efficacy, S1P5; details: for Emax: maximum effect in % of reference agonist phospho-fingolimod (100%), read-out: hS1P5 EMax; for EC50: recombinant CHO-K1 cells expressing human S1PR5, aequorin, Gq/i5, Ca2+ release, read-out: S1P5 EC50 range
T2 construct: host or cells: CHO-K1
Method: as §1, §2, §3, §4, §5

[3] = biological target: T3, human S1P3 receptor (S1PR3) (Homo sapiens, UniProt Q99500); experiment: Intracellular Ca2+ release (method 1), agonist potency, S1P3; details: CHO-K1 cells expressing human S1PR3
T3 construct: host or cells: CHO-K1
Method: as §1, §2, §3, §4, §5

[4] = biological target: T4, human S1P1 receptor (S1PR1) (Homo sapiens, UniProt P21453); experiment: Intracellular Ca2+ release (method 1), agonist potency, S1P1; details: CHO-K1 cells expressing human S1PR1
T4 construct: host or cells: CHO-K1
Method: as §1, §2, §3, §4, §5

T4 sequence (P21453 whole entry): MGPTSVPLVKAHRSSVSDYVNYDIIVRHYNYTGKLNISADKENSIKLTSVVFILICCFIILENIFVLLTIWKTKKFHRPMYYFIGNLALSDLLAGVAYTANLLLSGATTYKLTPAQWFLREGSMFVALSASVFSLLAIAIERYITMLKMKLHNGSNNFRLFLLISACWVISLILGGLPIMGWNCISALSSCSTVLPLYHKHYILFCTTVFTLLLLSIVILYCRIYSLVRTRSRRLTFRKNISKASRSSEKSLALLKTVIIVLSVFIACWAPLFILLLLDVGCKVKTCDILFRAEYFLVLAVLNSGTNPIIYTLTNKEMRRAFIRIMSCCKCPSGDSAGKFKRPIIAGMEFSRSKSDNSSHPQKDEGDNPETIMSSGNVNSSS
T2 sequence (Q9H228 whole entry): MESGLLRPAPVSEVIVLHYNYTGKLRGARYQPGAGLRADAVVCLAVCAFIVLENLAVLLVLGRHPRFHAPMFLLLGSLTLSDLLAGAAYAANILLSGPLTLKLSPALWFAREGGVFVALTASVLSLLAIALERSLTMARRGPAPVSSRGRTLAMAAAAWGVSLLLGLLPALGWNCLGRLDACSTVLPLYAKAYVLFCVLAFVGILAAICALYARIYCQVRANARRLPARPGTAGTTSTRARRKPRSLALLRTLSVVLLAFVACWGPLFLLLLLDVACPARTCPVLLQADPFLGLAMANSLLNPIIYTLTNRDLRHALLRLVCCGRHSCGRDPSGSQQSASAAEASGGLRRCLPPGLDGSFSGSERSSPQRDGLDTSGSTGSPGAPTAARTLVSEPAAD
T3 sequence (Q99500 whole entry): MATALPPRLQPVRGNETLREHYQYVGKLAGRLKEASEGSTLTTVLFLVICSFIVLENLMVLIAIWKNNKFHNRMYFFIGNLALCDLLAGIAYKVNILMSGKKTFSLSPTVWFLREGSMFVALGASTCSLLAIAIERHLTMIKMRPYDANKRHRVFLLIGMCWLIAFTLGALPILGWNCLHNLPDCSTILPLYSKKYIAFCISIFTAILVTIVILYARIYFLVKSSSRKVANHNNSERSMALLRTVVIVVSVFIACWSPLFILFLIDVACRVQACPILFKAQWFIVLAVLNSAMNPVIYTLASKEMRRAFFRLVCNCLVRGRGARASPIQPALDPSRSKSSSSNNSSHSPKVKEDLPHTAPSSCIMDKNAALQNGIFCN

| EC50 ([1]; cells given as bound) [µM] | Emax [2] [%] | EC50 [2] [µM] | EC50 [3] [µM] | EC50 ([4]; cells given as bound) [µM] | EC50 [1] [µM] | EC50 [4] [µM] | Compound |
| --- | --- | --- | --- | --- | --- | --- | --- |
| > 1 | 50 to 100 | 1 to 10 | > 1 | > 1 |  |  | Cc1cccnc1C#Cc1ccc2c(c1)C1(CC1)CN(CCC(=O)O)C2 [Compound 43, 3-(6′-((3-methylpyridin-2-yl)ethynyl)-1′H-spiro[cyclopropane-1,4′-isoquinolin]-2′(3′H)-yl)propanoic acid acetic acid salt (1:1)] |
|  | 50 to 100 | < 0.01 | > 1 | > 1 | 0.1 to 1 |  | Cc1ccccc1COc1ccc2c(c1)C1(CC1)CN(CCCC(=O)O)C2 [Compound 22, 4-(6′-((2-Methylbenzyl)oxy)-1′H-spiro[cyclopropane-1,4′-isoquinolin]-2′(3′H)-yl)butanoic acid] |
| > 1 | 50 to 100 | < 0.01 | > 1 | > 1 |  |  | CCOc1ccc(C#Cc2ccc3c(c2)C2(CC2)CN(CCC(=O)O)C3)cc1 [Compound 34, 3-(6′-((4-ethoxyphenyl)ethynyl)-1′H-spiro[cyclopropane-1,4′-isoquinolin]-2′(3′H)-yl)propanoic acid acetic acid salt (1:1)] |
| > 1 | 50 to 100 | < 0.01 | > 1 | > 1 |  |  | CC(C)Oc1ccc(C#Cc2ccc3c(c2)C2(CC2)CN(CCCC(=O)O)C3)cn1 [Compound 2, 4-(6′-((6-isopropoxypyridin-3-yl)ethynyl)-1′H-spiro[cyclopropane-1,4′-isoquinolin]-2′(3′H)-yl)butanoic acid] |
|  | 50 to 100 | 0.01 to 0.1 | > 1 | > 1 | 0.1 to 1 |  | Cc1ccccc1C#Cc1ccc2c(c1)C1(CC1)CN(CCC(=O)O)C2 [Compound 37, 3-(6′-(o-tolylethynyl)-1′H-spiro[cyclopropane-1,4′-isoquinolin]-2′(3′H)-yl)propanoic acid acetic acid salt (1:1)] |
| > 1 | 50 to 100 | 0.01 to 0.1 | > 1 | > 1 |  |  | O=C(O)CCN1Cc2ccc(C#Cc3ccsc3)cc2C2(CC2)C1 [Compound 38, 3-(6′-(thiophen-3-ylethynyl)-1′H-spiro[cyclopropane-1,4′-isoquinolin]-2′(3′H)-yl)propanoic acid] |
| > 1 | 50 to 100 | < 0.01 | > 1 | > 1 |  |  | O=C(O)CCCN1Cc2ccc(OCc3ccccc3F)cc2C2(CC2)C1 [Compound 19, 4-(6′-((2-Fluorobenzyl)oxy)-1′H-spiro[cyclopropane-1,4′-isoquinolin]-2′(3′H)-yl)butanoic acid] |
|  | > 100 | < 0.01 | > 1 | > 1 | 0.01 to 0.1 |  | O=C(O)CCN1Cc2ccc(C#Cc3cccc(F)c3F)cc2C2(CC2)C1 [Compound 10, 3-(6′-((2,3-Difluorophenyl)ethynyl)-1′H-spiro[cyclopropane-1,4′-isoquinolin]-2′(3′H)-yl)propanoic acid] |
|  | 50 to 100 | < 0.01 | > 1 | > 1 | 0.1 to 1 |  | O=C(O)CCN1Cc2ccc(C#Cc3ccccc3Cl)cc2C2(CC2)C1 [Compound 35, 3-(6′-((2-chlorophenyl)ethynyl)-1′H-spiro[cyclopropane-1,4′-isoquinolin]-2′(3′H)-yl)propanoic acid] |
| > 1 | > 100 | < 0.01 | > 1 |  |  | 0.1 to 1 | O=C(O)CCCN1Cc2ccc(C#Cc3ccc(OC4CCCC4)cc3)cc2C2(CC2)C1 [Compound 44, 4-(6′-((4-(cyclopentyloxy)phenyl)ethynyl)-1′H-spiro[cyclopropane-1,4′-isoquinolin]-2′(3′H)-yl)butanoic acid] |
|  | 50 to 100 | < 0.01 | > 1 | > 1 | 0.1 to 1 |  | CC(CC(=O)O)CN1Cc2ccc(C#Cc3c(F)cccc3F)cc2C2(CC2)C1 (stereo not shown) [Compound 58, 4-(6′-((2,6-difluorophenyl)ethynyl)-1′H-spiro[cyclopropane-1,4′-isoquinolin]-2′(3′H)-yl)-3-methylbutanoic acid] |
|  | 50 to 100 | < 0.01 | > 1 | > 1 | 0.1 to 1 |  | O=C(O)CCN1Cc2ccc(C#Cc3c(F)cccc3F)cc2C2(CC2)C1 [Compound 36, 3-(6′-((2,6-difluorophenyl)ethynyl)-1′H-spiro[cyclopropane-1,4′-isoquinolin]-2′(3′H)-yl)propanoic acid acetic acid salt (1:1)] |
|  | > 100 | < 0.01 | > 1 | > 1 | 0.01 to 0.1 |  | O=C(O)CCCN1Cc2ccc(OCc3c(Cl)cccc3Cl)cc2C2(CC2)C1 [Compound 15, 4-(6′-((2,6-Dichlorobenzyl)oxy)-1′H-spiro[cyclopropane-1,4′-isoquinolin]-2′(3′H)-yl)butanoic acid] |
| > 1 | 50 to 100 | 0.01 to 0.1 | > 1 | > 1 |  |  | O=C(O)CCCN1Cc2ccc(OCc3cccc(F)c3)cc2C2(CC2)C1 [Compound 23, 4-(6′-((3-Fluorobenzyl)oxy)-1′H-spiro[cyclopropane-1,4′-isoquinolin]-2′(3′H)-yl)butanoic acid] |
|  | > 100 | < 0.01 | > 1 | > 1 | < 0.01 |  | CCc1cccc(Cl)c1COc1ccc2c(c1)C1(CC1)CN(CCCC(=O)O)C2 [Compound 27, 4-(6′-((2-Chloro-6-ethylbenzyl)oxy)-1′H-spiro[cyclopropane-1,4′-isoquinolin]-2′(3′H)-yl)butanoic acid] |
| > 1 | 50 to 100 | < 0.01 | > 1 | > 1 |  |  | CCOc1ccc(C#Cc2ccc3c(c2)C2(CC2)CN(CCCC(=O)O)C3)cc1F [Compound 45, 4-(6′-((4-ethoxy-3-fluorophenyl)ethynyl)-1′H-spiro[cyclopropane-1,4′-isoquinolin]-2′(3′H)-yl)butanoic acid] |
|  | 50 to 100 | < 0.01 | > 1 | > 1 | 0.1 to 1 |  | CCc1cccc(Cl)c1COc1ccc2c(c1)C1(CC1)CN(CC(=O)O)C2 [Compound 13, 2-(6′-((2-Chloro-6-ethylbenzyl)oxy)-1′H-spiro[cyclopropane-1,4′-isoquinolin]-2′(3′H)-yl)acetic acid] |
|  | < 50 | 0.01 to 0.1 | > 1 | > 1 | 0.1 to 1 |  | O=C(O)CCCN1Cc2ccc(OCc3ccc(F)c(F)c3)cc2C2(CC2)C1 [Compound 18, 4-(6′-((3,4-Difluorobenzyl)oxy)-1′H-spiro[cyclopropane-1,4′-isoquinolin]-2′(3′H)-yl)butanoic acid] |
|  | 50 to 100 | < 0.01 | > 1 | > 1 | 0.1 to 1 |  | O=C(O)CCCN1Cc2ccc(OCc3cccc(Cl)c3)cc2C2(CC2)C1 [Compound 24, 4-(6′-((3-Chlorobenzyl)oxy)-1′H-spiro[cyclopropane-1,4′-isoquinolin]-2′(3′H)-yl)butanoic acid] |
|  | 50 to 100 | < 0.01 | > 1 | > 1 | 0.01 to 0.1 |  | O=C(O)CCN1Cc2ccc(C#Cc3c(Cl)cccc3Cl)cc2C2(CC2)C1 [Compound 11, 3-(6′-((2,6-dichlorophenyl)ethynyl)-1′H-spiro[cyclopropane-1,4′-isoquinolin]-2′(3′H)-yl)propanoic acid] |
